Measurements as given in patent US8933035B2, “Transglutaminase-activating peptide and cosmetic or pharmaceutical composition containing same” (ISP Investments Inc., priority 2009, dated 2015).

Assays:
filaggrin = assay: immunolabelling of epidermal differentiation marker filaggrin; type: cell-based, human; details: 0.5 ppm, 24 hours; labelled in skin biopsies
Source text: (§1) The objective of this study was to determine the influence of peptide SEQ ID NO: 5 on epidermal differentiation. To this end, the expression of the main markers of epidermal differentiation, expressed specifically in the keratinocytes in the suprabasal layers, were studied. The tested markers are transglutaminase 1, pankeratins, filaggrin, involucrin and loricrin. On the other hand, filaggrin, involucrin and loricrin are precursors of the cornified envelope and of transglutaminase substrates.
(§2) Biopsies of human skin were placed in culture at the air/liquid interface. A 1% solution of a mother solution containing 50 ppm of peptide SEQ ID NO: 5 was applied topically over 24 hours. The biopsies were then enclosed in paraffin and histological sections 3 μm thick were made. The slides were deparaffined, hydrated, then immunolabelled by an antibody directed against TG1 (Clinisciences BT-621, mouse monoclonal) or cyto-pankeratins (NOVOCASTRA® NCL-CK10 antibody, mouse monoclonal), or loricrin (ABCAM® ab24722 antibody, rabbit polyclonal), or involucrin (NOVOCASTRA® NCL-INV antibody, clone SY5, mouse monoclonal) or filaggrin (Tebu Santa Cruz sc-58761, mouse monoclonal). For easier observation, the rings of the cells can be counter-stained by DAPI (4′,6′ di amidine-2-phenyl indole, a blue fluorescent molecule capable of binding strongly to DNA). […]

TG2 [1] = assay: immunofluorescence labelling of TG2 in cultured normal human fibroblasts; type: cell-based; details: 0.5 ppm, 24 hours
Protocol: The objective of this study was to determine the influence of peptide SEQ ID NO: 5 on the expression of the different transglutaminases expressed in the human skin. To this end, a culture of normal human keratinocytes (NHKs) and a skin biopsy were subjected to specific labellings by immunofluorescence. Cultures of normal human fibroblasts were also labelled by immunofluorescence, specifically for TG2, which is expressed in these types of cell. Cultured NHKs were treated with a 1% solution of a mother solution containing 50 ppm of peptide SEQ ID NO: 5 for 24 hours. For immunolabelling by the anti-TG1 antibody, the cells were washed and fixed with 3.7% paraformaldehyde for 10 minutes. The cells were then incubated in the presence of a specific anti-TG1 antibody (Clinisciences BT-621, mouse monoclonal), then in the presence of a suitable secondary antibody coupled to a fluorescent marker. For the other immunolabellings, the cells were washed and fixed with cold methanol for 1 minute. The cells were then incubated in the presence of a specific antibody; anti-TG2 (ABCAM® ab2972 antibody, rabbit polyclonal), anti-TG3 (ABCAM® ab53236 antibody, mouse monoclonal) or anti-TG5 (ABCAM® ab26992 antibody, rabbit polyclonal). After mounting in a medium ad hoc, the slides were observed under epifluorescence microscope (ECLIPSE® E 80i microscope by Nikon Corporation). […]

TG1 [2] = assay: immunofluorescence labelling of TG1 in cultured normal human keratinocytes; type: cell-based; details: 0.5 ppm, 24 hours
Protocol: (§3) The objective of this study was to determine the influence of peptide SEQ ID NO: 5 on the expression of the different transglutaminases expressed in the human skin. To this end, a culture of normal human keratinocytes (NHKs) and a skin biopsy were subjected to specific labellings by immunofluorescence. Cultures of normal human fibroblasts were also labelled by immunofluorescence, specifically for TG2, which is expressed in these types of cell. Cultured NHKs were treated with a 1% solution of a mother solution containing 50 ppm of peptide SEQ ID NO: 5 for 24 hours. For immunolabelling by the anti-TG1 antibody, the cells were washed and fixed with 3.7% paraformaldehyde for 10 minutes. The cells were then incubated in the presence of a specific anti-TG1 antibody (Clinisciences BT-621, mouse monoclonal), then in the presence of a suitable secondary antibody coupled to a fluorescent marker. For the other immunolabellings, the cells were washed and fixed with cold methanol for 1 minute. The cells were then incubated in the presence of a specific antibody; anti-TG2 (ABCAM® ab2972 antibody, rabbit polyclonal), anti-TG3 (ABCAM® ab53236 antibody, mouse monoclonal) or anti-TG5 (ABCAM® ab26992 antibody, rabbit polyclonal). After mounting in a medium ad hoc, the slides were observed under epifluorescence microscope (ECLIPSE® E 80i microscope by Nikon Corporation).

involucrin [3] = assay: immunolabelling of epidermal differentiation marker involucrin; type: cell-based, human; details: 0.5 ppm, 24 hours; cultured NHKs and skin biopsies
Source text: as §1
(§4) Cultured NHKs were treated with a 1% solution of a mother solution containing 50 ppm of peptide SEQ ID NO: 5 for 24 hours. The cells were then washed and fixed with 3.7% paraformaldehyde for 10 minutes. After unmasking of specific sites, the cells were incubated in the presence of a specific antibody directed against TG1 (Clinisciences BT-621, mouse monoclonal), or against loricrin (ABCAM® ab24722 antibody, rabbit polyclonal), or involucrin (NOVOCASTRA® NCL-INV antibody, mouse monoclonal, clone SY5), then incubated in the presence of a suitable secondary antibody coupled to a fluorescent marker. For easier observation, the rings of the cells can be counter-stained by DAPI (4′,6′ di amidine-2-phenyl indole), a blue fluorescent molecule capable of binding strongly to DNA). […]

biopsies of human skin [4] = assay: epidermal differentiation, morphology of skin sections ex vivo; type: cell-based; details: 0.5 ppm topically, 24 hours
Protocol: Biopsies of human skin were placed in culture at the air/liquid interface. A 1% solution of a mother solution containing 50 ppm of peptide SEQ ID NO: 5 was applied topically over 24 hours. The biopsies were then enclosed in paraffin and histological sections 3 μm thick were made. The slides were deparaffined, hydrated, then immunolabelled by an antibody directed against TG1 (Clinisciences BT-621, mouse monoclonal) or cyto-pankeratins (NOVOCASTRA® NCL-CK10 antibody, mouse monoclonal), or loricrin (ABCAM® ab24722 antibody, rabbit polyclonal), or involucrin (NOVOCASTRA® NCL-INV antibody, clone SY5, mouse monoclonal) or filaggrin (Tebu Santa Cruz sc-58761, mouse monoclonal). For easier observation, the rings of the cells can be counter-stained by DAPI (4′,6′ di amidine-2-phenyl indole, a blue fluorescent molecule capable of binding strongly to DNA). A suitable secondary antibody coupled to a fluorescent marker was then used. After mounting in a medium ad hoc, the slides were observed under epifluorescence microscope (ECLIPSE® E 80i microscope by Nikon Corporation).

involucrin [5] = assay: immunoblot of involucrin in cultured NHKs; type: cell-based, human; details: 1% of 50 ppm mother solution, 24 hours
Protocol: (§5) Cultured NHKs were treated with a 1% solution of a mother solution containing 50 ppm of peptide SEQ ID NO: 5 for 24 hours. The cells were then rinsed and detached from the support by scraping in a RIPA buffer in the presence of a cocktail of protease inhibitors (Thermo Scientific, Rockford, USA). The lysed cells were centrifuged at 4° C. at 10,000 rpm for 20 minutes and the supernatants were collected. The samples were then standardised by assaying of the proteins by BCA kit (Pierce, France). The samples were mixed, then subjected to electrophoresis on NUPAGE® 3-8% tris-acetate gel in a NuPAGE NUPAGE® tris-acetate migration buffer, then blotted on a membrane of nitrocellulose by means of a blotting device (Invitrogen, Paisley, UK). The membranes were saturated in 5 TBS milk for 2 hours at ambient temperature, then incubated at 4° C. overnight with a primary antibody directed against TG1 (Clinisciences BT-621, monoclonal mouse) or against involucrin (NOVOCASTRA®NCL-INV antibody, clone SY5, mouse monoclonal) or against loricrin (ABCAM® ab24722 antibody, rabbit polyclonal). After washing by 0.05% TBS-Tween buffer, the membrane was incubated with a suitable secondary antibody coupled to peroxidase. The blots were then developed by means of a chemiluminescent substrate (SuperSignal West Dura Extended Duration Substrate, Pierce, Brebiere, France).

transglutaminases = assay: total enzyme activity of transglutaminases in normal human keratinocytes (fluorescein-labelled cadaverine substrate); type: cell-based; details: NHKs, 0.5 ppm
Protocol: The objective of this study was to determine the influence of peptide SEQ ID NO: 5 on the total activity of transglutaminases in normal human keratinocytes (NHKs). To this end, the total enzyme activity of transglutaminases was assayed by spectrophotometry by means of an amino acid donor substrate, the amino acids being labelled with fluorescein.
NHKs were placed in black 96-well plates. After four days of culture, the NHKs were treated with a 1% solution of a mother solution containing 50 ppm of peptide SEQ ID NO: 5 for 24 or 48 hours (the active ingredient was added every 24 hours). A positive control was created by treating the cells with EGCG (epigallocatechin gallate, the main polyphenol ingredient in green tea) at a concentration of 20 μg/ml. The substrate used was cadaverine labelled with fluorescein (Invitrogen A10466) diluted to 100 μM in the culture medium. […] After two rinses in ethanol, then three rinses in the HBSS buffer, 100 μl of PBS were added to each well and a reading was taken by spectrophotometer at excitation wavelengths of 485 nm and emission wavelengths of 530 nm. Under these conditions, the transglutaminase activity was proportional to the amount of fluorescence emitted (expressed in fluorescence units), based on the total amount of proteins present in each well, previously assayed by the BCA technique.

biopsies of human skin [6] = assay: study of epidermal regeneration, histology of skin biopsies; type: cell-based; details: 1% of 50 ppm mother solution topically, 24 hours
Protocol: Biopsies of human skin were placed in culture at the air/liquid interface. A 1% solution of a mother solution containing 50 ppm of peptide SEQ ID NO: 5 was applied topically, then the samples were incubated for 24 hours. The skin biopsies were then enclosed in paraffin and histological sections 3 μm thick were made. The sections were deposited on Superfrost Plus slides (Menzel Glaser, Thermo Scientific), then deparaffined in xylene and rehydrated in a series of alcohol-water solutions. The sections were then stained by 50% haematoxylin for 3 minutes, rinsed, then stained with 60% eosin for 3 minutes and rinsed in water. The sections were then dehydrated, mounted in Eukitt and examined by optical microscopy.

TG3 [7] = assay: immunofluorescence labelling of TG3 in cultured normal human keratinocytes; type: cell-based; details: 0.5 ppm, 24 hours
Protocol: as §3

TG2 [8] = assay: immunofluorescence labelling of TG2 in cultured normal human keratinocytes; type: cell-based; details: 0.5 ppm, 24 hours
Protocol: as §3

TG3 [9] = assay: immunolabelling of TG3 in ex vivo human skin biopsies; type: cell-based; details: cultivated ex vivo skin biopsies, 0.5 ppm topically, 24 hours
Protocol: Biopsies of human skin were placed in culture at the air/liquid interface. A 1% solution of a mother solution containing 50 ppm of peptide SEQ ID NO: 5 was applied topically over 24 hours.
For the labellings of TG3, the skin biopsies were enclosed in paraffin and histological sections 3 μm thick were made. The slides were deparaffined, hydrated, then immunolabelled by an antibody directed against TG3 (ABCAM® ab53236 antibody, mouse monoclonal), then by a suitable secondary antibody coupled to a fluorescent marker. The skin sections were then examined under epifluorescence microscope (ECLIPSE® E 80i microscope by Nikon Corporation).

pankeratins = assay: immunolabelling of epidermal differentiation marker pankeratins; type: cell-based, human; details: 0.5 ppm, 24 hours; labelled in skin biopsies
Source text: as §1, §2

TG1 [10] = assay: immunoblot of TG1 in cultured NHKs; type: cell-based, human; details: 1% of 50 ppm mother solution, 24 hours
Protocol: as §5

human fibroblasts = assay: Ibidi in vitro healing model of fibroblast regeneration; type: cell-based; details: 0.5 ppm and 1.5 ppm
Protocol: The Ibidi in vitro healing model was used (Biovalley, Marne la Vallée, France). Human fibroblasts were sown in two separate compartments of an Ibidi insert, which was then placed in a culture dish. On confluence, the insert was removed, thus creating an acellular zone measuring 400 μm wide between the two cellular lawns. The peptide diluted to 1% and 3% from a mother solution containing 50 ppm of peptide SEQ ID NO: 5 was then added to the culture medium, and the treatment was carried out for 48 hours with renewal of the active ingredient every 24 hours. Inspection by phase contrast microscopy (Olympus CK40 microscope, ×5, connected to an Olympus E-510 camera) was carried out at different times (0 to 48 hours) during the migration process.

TG5 = assay: immunofluorescence labelling of TG5 in cultured normal human keratinocytes; type: cell-based; details: 0.5 ppm, 24 hours
Protocol: as §3

TG1 [11] = assay: immunolabelling of epidermal differentiation marker TG1; type: cell-based, human; details: 0.5 ppm, 24 hours; cultured NHKs and skin biopsies
Source text: as §1, §4

TG2 [12] = assay: immunolabelling of TG2 in ex vivo human skin biopsies; type: cell-based; details: cultivated ex vivo skin biopsies, 0.5 ppm topically, 24 hours
Protocol: (§6) Biopsies of human skin were placed in culture at the air/liquid interface. A 1% solution of a mother solution containing 50 ppm of peptide SEQ ID NO: 5 was applied topically over 24 hours. For the labellings of TG1 and TG2, the skin biopsies were then enclosed in resin and frozen in nitrogen. Sections of approximately 6 μm were then made by cryostat. Immunolabelling was carried out by means of a specific antibody; anti-TG1 (Clinisciences BT-621, mouse monoclonal) or anti-TG2 (ABCAM® ab2972 antibody, rabbit polyclonal), then by means of a suitable secondary antibody coupled to a fluorescent marker. The skin sections were then examined under epifluorescence microscope (ECLIPSE® E 80i microscope by Nikon Corporation).

loricrin [13] = assay: immunolabelling of epidermal differentiation marker loricrin; type: cell-based, human; details: 0.5 ppm, 24 hours; cultured NHKs and skin biopsies
Source text: as §1, §4

TG1 [14] = assay: immunolabelling of TG1 in ex vivo human skin biopsies; type: cell-based; details: cultivated ex vivo skin biopsies, 0.5 ppm topically, 24 hours
Protocol: as §6

loricrin [15] = assay: immunoblot of loricrin in cultured NHKs; type: cell-based, human; details: 1% of 50 ppm mother solution, 24 hours
Protocol: as §5

Substance: SEQ ID NO: 5 (RRGQ)
- expression of filaggrin (immunofluorescence) (filaggrin): stimulates the expression
- expression of TG2 (immunofluorescence) (TG2 [1]): stimulates the expression
- expression of TG1 (immunofluorescence) (TG1 [2]): stimulates the expression
- expression of involucrin (immunofluorescence) (involucrin [3]): stimulates the expression
- epidermal differentiation, cornified layer morphology (biopsies of human skin [4]): thicker cornified layer
- increase in expression of involucrin (quantitative analysis of immunoblots) (involucrin [5]): 30%
- increase in total transglutaminase enzyme activity compared to the untreated control (transglutaminases; after 24 hours): 30%
- increase in total transglutaminase enzyme activity compared to the untreated control (transglutaminases; after 48 hours): 47.7%
- cells of the basal layer in histological sections of epidermis (biopsies of human skin [6]): Greater density of the cells of the basal layer
- cornified layer in histological sections of epidermis (biopsies of human skin [6]): neo-synthesis of the cornified layer, which appears thicker and better hydrated
- expression of TG3 (immunofluorescence) (TG3 [7]): stimulates the expression
- expression of TG2 (immunofluorescence) (TG2 [8]): stimulates the expression
- expression of TG3 (immunofluorescence) (TG3 [9]): stimulates the expression
- expression of pankeratins (immunofluorescence) (pankeratins): stimulates the expression
- increase in expression of TG1 (quantitative analysis of immunoblots) (TG1 [10]): 20%
- dose dependence of the effect on fibroblast invasion (human fibroblasts): dose-dependent
- invasion of the acellular zone with fibroblasts compared to control (human fibroblasts; 0 to 48 hours): quicker
- expression of TG5 (immunofluorescence) (TG5): stimulates the expression
- expression of TG1 as differentiation marker (immunofluorescence) (TG1 [11]): stimulates the expression
- expression of TG2 (immunofluorescence) (TG2 [12]): stimulates the expression
- expression of loricrin (immunofluorescence) (loricrin [13]): stimulates the expression
- expression of TG1 (immunofluorescence) (TG1 [14]): stimulates the expression
- increase in expression of loricrin (quantitative analysis of immunoblots) (loricrin [15]): 16%
